Source: PMC10905675, “INX-315, a Selective CDK2 Inhibitor, Induces Cell Cycle Arrest and Senescence in Solid Tumors” (Cancer Discovery, 2023)
Where two headings read alike, the source gives them in different places.

Tests used:
[1] = molecular target: T1, PIK3CA E545K/PIK3R1 (p110 alpha E545K/p85 alpha) (Homo sapiens, UniProt P42336, E545K); experiment: SelectScreen Adapta; assay type: biochemical; settings: INX-0315 at 100nM
T1 construct: purchased Thermo Fisher Scientific SelectScreen (plus Nanosyn / Reaction Biology for CDK/cyclin lines)
Excerpt: (§1) INX-315 was first evaluated in the SelectScreen Biochemical Kinase Profiling at Thermo Fisher Scientific (Madison, WI). The primary screen consisted of INX-315 dosed at a single concentration of 100 nmol/L in 1% DMSO across each platform within the SelectScreen array of assays, LanthaScreen Eu Kinase Binding Assay; AdaptaScreen; and Z'LyteScreen using preestablished conditions at Thermo Fisher Scientific as shown in Supplementary Table S2. […] The follow-up screen consisted of 10-point dose–response curves for INX-315 from 1 µmol/L to 0.0495 nmol/L.

[2] = molecular target: T2, SPHK1 (Homo sapiens, UniProt Q9NYA1); experiment: SelectScreen Adapta; assay type: biochemical; settings: INX-0315 at 100nM
T2 construct: purchased Thermo Fisher Scientific SelectScreen (plus Nanosyn / Reaction Biology for CDK/cyclin lines)
T2 sequence (Q9NYA1 whole entry): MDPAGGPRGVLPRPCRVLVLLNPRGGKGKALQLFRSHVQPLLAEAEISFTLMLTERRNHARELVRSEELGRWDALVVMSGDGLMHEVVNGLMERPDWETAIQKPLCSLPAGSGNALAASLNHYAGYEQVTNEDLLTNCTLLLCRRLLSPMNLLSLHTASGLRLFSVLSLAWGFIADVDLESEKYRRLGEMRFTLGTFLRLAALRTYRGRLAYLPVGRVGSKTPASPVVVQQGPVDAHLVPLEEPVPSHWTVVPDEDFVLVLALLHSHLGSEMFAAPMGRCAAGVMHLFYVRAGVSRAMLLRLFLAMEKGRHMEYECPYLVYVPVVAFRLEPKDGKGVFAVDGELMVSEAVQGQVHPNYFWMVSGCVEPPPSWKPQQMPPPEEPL
Excerpt: as §1

[3] = molecular target: T3, CDK9/cyclin T1 (Homo sapiens, UniProt P50750); experiment: SelectScreen Adapta; assay type: biochemical; settings: INX-0315 at 100nM
T3 construct: purchased Carna 04-110
T3 sequence (P50750 whole entry): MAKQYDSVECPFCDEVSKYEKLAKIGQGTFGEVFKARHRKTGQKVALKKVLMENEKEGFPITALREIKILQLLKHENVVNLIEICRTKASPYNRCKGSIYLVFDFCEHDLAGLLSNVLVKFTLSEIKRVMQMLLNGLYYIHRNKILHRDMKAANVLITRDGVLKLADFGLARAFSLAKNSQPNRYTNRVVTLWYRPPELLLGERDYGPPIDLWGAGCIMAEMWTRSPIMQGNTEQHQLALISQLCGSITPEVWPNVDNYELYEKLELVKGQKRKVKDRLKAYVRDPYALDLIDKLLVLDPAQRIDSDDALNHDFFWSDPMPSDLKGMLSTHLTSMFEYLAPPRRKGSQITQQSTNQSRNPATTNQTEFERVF
T3 sequence (O60563 whole entry partner): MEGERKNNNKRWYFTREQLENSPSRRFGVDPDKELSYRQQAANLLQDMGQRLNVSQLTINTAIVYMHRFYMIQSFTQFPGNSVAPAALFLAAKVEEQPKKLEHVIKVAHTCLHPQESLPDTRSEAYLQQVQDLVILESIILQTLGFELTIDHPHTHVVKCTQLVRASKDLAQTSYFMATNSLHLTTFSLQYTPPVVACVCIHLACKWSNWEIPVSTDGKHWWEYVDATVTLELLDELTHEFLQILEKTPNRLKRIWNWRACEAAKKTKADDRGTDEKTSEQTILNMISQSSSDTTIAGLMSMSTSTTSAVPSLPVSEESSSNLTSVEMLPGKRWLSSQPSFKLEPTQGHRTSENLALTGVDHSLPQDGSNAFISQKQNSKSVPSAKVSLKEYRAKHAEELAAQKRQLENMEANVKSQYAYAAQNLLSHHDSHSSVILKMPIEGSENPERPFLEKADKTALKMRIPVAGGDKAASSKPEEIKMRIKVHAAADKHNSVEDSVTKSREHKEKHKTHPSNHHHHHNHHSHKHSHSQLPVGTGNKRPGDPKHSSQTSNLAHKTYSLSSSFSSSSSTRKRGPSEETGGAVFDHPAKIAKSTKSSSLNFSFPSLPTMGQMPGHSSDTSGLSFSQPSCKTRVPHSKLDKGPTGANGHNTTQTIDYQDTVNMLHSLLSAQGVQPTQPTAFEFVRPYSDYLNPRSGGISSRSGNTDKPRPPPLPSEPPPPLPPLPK
Excerpt: as §1

[4] = molecular target: T4, PIK3C2G (PI3K-C2 gamma) (Homo sapiens, UniProt O75747); experiment: SelectScreen Adapta; assay type: biochemical; settings: INX-0315 at 100nM
T4 construct: purchased Thermo Fisher Scientific SelectScreen (plus Nanosyn / Reaction Biology for CDK/cyclin lines)
Excerpt: as §1

[5] = molecular target: T5, CDK3/cyclin E1 (Homo sapiens, UniProt Q00526); experiment: Nanosyn biochemical assay
T5 construct: purchased BPS 40103
Description: (§2) Compounds were tested in kinase assays (Nanosyn, Inc.). The assays were completed using microfluidic kinase detection technology (Caliper Assay Platform). The compounds were tested in 12-point dose–response format in singlicate at the Km for ATP. Phosphoacceptor substrate peptide concentration used was 1 µmol/L and staurosporine was used as the reference compound for all assays. Details for individual Nanosyn assays performed are provided here: […]

[6] = molecular target: T6, CDK7 (Homo sapiens, UniProt P50613); experiment: Nanosyn biochemical assay; settings: Supp Fig S1C, value (SEM), read-out: IC50 (nM) CDK7
T6 construct: purchased Carna 04-108
T6 sequence (P50613 whole entry): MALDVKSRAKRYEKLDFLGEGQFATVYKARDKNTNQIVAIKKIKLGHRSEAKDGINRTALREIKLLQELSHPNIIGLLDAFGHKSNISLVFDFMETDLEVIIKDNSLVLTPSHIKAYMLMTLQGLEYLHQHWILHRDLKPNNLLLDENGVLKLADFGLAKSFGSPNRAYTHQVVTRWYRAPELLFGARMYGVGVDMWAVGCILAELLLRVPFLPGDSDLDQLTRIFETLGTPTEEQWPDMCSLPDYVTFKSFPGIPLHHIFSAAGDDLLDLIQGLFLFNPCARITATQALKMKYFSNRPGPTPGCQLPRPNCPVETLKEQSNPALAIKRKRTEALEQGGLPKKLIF
T6 sequence (P51946 whole entry partner): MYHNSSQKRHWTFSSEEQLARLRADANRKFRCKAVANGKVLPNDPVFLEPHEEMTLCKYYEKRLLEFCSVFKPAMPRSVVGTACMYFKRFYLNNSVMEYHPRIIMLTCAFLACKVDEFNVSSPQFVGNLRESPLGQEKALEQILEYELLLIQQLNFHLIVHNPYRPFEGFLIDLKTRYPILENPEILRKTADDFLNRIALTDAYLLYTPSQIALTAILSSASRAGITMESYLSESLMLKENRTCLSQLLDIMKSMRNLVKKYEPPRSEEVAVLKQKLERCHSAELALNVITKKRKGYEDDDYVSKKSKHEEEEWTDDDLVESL
T6 sequence (P51948 whole entry partner): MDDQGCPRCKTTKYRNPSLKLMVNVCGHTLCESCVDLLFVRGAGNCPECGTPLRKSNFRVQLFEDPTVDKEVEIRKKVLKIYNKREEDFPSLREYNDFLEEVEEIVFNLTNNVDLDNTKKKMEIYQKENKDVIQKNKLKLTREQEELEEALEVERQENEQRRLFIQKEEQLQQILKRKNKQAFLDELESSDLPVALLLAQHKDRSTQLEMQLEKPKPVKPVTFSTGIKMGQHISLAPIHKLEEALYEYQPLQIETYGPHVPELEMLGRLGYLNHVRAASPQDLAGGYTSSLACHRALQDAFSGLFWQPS
Description: as §2

[7] = molecular target: T7, CDK5/p25 (Homo sapiens, UniProt Q00535); experiment: Nanosyn biochemical assay; settings: ATP at Km, value (SEM), read-out: IC50 (nmol/L) CDK5/p25
T7 construct: purchased BPS 40105
T7 sequence (Q00535 whole entry): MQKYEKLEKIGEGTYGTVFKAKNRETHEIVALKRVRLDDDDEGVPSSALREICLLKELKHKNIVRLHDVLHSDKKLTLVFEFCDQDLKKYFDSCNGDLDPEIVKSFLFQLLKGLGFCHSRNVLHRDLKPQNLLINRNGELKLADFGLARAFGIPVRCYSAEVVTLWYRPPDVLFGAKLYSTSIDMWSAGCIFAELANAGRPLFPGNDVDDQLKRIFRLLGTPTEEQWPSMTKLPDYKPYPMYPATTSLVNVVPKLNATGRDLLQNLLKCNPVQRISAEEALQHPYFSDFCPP
T7 sequence (Q15078 99-307 partner limits assumed): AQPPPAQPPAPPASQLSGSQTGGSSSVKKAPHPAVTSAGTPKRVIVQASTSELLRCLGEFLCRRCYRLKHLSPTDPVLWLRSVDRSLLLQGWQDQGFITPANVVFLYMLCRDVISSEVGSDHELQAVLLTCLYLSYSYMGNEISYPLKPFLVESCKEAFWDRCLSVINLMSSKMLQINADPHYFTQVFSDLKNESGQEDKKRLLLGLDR
Description: as §2

[8] = molecular target: T8, CDK2/cyclin E1 (Homo sapiens, UniProt P24941); experiment: Nanosyn biochemical assay; settings: for IC50: Nanosyn
T8 construct: purchased Millipore 14-475
Description: as §2

[9] = molecular target: T9, CDK6/cyclin D3 (Homo sapiens, UniProt Q00534); experiment: Nanosyn biochemical assay; settings: Supp Fig S1D, representative dose response curve, read-out: IC50 CDK6 - Cyclin D3
T9 construct: purchased Carna 04-107
Description: as §2

[10] = molecular target: T10, CDK5 (Homo sapiens, UniProt Q00535); experiment: Nanosyn biochemical assay
T10 construct: purchased ThermoFisher PV3000
T10 sequence (Q00535 whole entry): as the sequence (Q00535 whole entry) above
T10 sequence (Q15078 2-307 partner limits assumed): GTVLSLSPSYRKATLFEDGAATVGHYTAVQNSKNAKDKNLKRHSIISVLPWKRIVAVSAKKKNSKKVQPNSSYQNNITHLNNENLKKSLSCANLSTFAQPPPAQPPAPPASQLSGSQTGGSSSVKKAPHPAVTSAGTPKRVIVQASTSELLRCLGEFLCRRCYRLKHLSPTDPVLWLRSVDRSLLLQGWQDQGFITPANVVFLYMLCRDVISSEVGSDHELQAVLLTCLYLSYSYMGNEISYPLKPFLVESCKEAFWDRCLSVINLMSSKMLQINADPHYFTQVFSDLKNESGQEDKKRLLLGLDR
Description: as §2

[11] = molecular target: T11, CDK1/cyclin B1 (Homo sapiens, UniProt P06493); experiment: Nanosyn biochemical assay
T11 construct: purchased Millipore 14-450M
T11 sequence (P06493 whole entry): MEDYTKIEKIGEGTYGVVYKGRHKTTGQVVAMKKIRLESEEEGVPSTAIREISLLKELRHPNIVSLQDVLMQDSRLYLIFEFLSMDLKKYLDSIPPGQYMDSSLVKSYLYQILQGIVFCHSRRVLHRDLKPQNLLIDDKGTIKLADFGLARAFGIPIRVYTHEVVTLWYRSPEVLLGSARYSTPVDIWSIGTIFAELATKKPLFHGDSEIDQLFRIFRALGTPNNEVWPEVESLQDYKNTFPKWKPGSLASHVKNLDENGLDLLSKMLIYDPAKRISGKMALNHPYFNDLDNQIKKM
T11 sequence (P14635 whole entry partner): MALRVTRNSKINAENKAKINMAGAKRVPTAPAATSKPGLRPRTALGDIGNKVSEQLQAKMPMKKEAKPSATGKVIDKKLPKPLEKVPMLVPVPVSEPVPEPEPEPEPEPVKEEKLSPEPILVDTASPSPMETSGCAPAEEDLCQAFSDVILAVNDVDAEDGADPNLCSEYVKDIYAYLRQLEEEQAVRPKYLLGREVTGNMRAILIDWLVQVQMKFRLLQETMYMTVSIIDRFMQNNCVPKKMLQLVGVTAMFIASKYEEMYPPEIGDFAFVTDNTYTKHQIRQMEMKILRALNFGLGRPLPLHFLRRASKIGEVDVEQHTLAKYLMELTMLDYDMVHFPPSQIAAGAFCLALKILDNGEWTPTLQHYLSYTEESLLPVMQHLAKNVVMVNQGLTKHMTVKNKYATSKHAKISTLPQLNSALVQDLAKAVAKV
Description: as §2

[12] = molecular target: T3, CDK9/cyclin T1; experiment: Nanosyn biochemical assay; settings: Supp Fig S1D, representative dose response curve, read-out: IC50 CDK9 - Cyclin T1
Description: as §2

[13] = molecular target: T12, CDK4/cyclin D1 (Homo sapiens, UniProt P11802); experiment: Nanosyn biochemical assay
T12 construct: purchased ThermoFisher PV4400
T12 sequence (P11802 whole entry): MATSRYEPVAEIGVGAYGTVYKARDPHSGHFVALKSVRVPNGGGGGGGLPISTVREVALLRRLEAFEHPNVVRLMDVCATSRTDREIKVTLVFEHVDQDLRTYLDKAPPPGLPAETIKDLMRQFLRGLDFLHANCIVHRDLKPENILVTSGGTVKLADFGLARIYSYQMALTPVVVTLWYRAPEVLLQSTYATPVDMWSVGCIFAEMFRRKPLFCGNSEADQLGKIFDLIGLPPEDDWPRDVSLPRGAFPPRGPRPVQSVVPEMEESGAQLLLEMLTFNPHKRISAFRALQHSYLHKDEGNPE
T12 sequence (P24385 whole entry partner): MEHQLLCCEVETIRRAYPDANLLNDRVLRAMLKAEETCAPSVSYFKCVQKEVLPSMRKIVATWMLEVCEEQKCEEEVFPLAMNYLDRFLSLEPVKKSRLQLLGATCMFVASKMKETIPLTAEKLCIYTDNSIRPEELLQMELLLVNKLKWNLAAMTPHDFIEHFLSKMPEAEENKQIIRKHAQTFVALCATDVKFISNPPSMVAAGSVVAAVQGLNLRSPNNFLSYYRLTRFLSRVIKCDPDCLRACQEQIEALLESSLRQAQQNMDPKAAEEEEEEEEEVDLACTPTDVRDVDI
Description: as §2

[14] = molecular target: T13, CDK2/cyclin A2 (Homo sapiens, UniProt P24941); experiment: Nanosyn biochemical assay; settings: Supp Fig S1D, representative dose response curve, read-out: IC50 CDK2 - Cyclin A
T13 construct: purchased Millipore 14-448
Description: as §2

[15] = molecular target: T8, CDK2/cyclin E1; experiment: NanoBRET live cell target engagement; assay type: binding
Description: (§3) Reaction Bio (Malvern, PA) conducted NanoBRET assays utilizing Promega NanoLuc technology with two replicates per experiment. The CDK2/E1 and CDK1/B1 values are the average of two separate experiments.
(§4) HEK293 cells were transfected using Opti-MEM without serum containing ratios of 9.0 µg/mL of Transfection Carrier DNA, 1.0 µg/mL of NanoLuc fusion vector DNA and 1 mL of Opti-MEM without phenol red. 30 µL of FuGENE HD transfection reagent was added to each milliliter of DNA mixture to form lipid:DNA complex. After incubation for 20 minutes at room temperature, 1 part lipid/DNA complex was added to 20 parts HEK293 cells in suspension. Cells were then plated and incubated overnight before being trypsinized and resuspended at 2 × 10^5 cells/mL. NanoBRET tracer reagent was added to cells at a ratio of 1 part tracer to 20 parts cell suspension. Cells were added to a 384-well plate and incubated for 1 hour. Plates were removed and incubated at room temperature for 15 minutes to equilibrate before 3x complete substrate plus inhibitor was added. After 2–3 minutes of incubation at room temperature, donor and acceptor wavelengths (460 nm and 600 nm, respectively) were measured using an Envision 2104 plate reader.

[16] = molecular target: T11, CDK1/cyclin B1; experiment: NanoBRET live cell target engagement; assay type: binding
Description: as §3, §4

[17] = molecular target: T14, CDK2/cyclin A1 (Homo sapiens, UniProt P24941); experiment: NanoBRET live cell target engagement; assay type: binding
T14 construct: host or cells: HEK293
Description: as §3, §4

[18] = molecular target: T3, CDK9/cyclin T1; experiment: NanoBRET live cell target engagement; assay type: binding
Description: as §3, §4

[19] = system: MKN1 cells; experiment: Cell cycle flow cytometry; assay type: cell-based; settings: 24 hours, 100 nmol/L
[20] = NanoBRET intracellular IC50 ratio

Compound `NS(=O)(=O)c1ccc(Nc2ncc3cc4n(c3n2)C2(CCCCC2)C(=O)NN4)cc1` [INX-315] has an inhibition at 0.1 µM [1] of 0%, an inhibition at 0.1 µM [2] of -15% and an inhibition at 0.1 µM [3] of 52%. The inhibition at 0.1 µM [4] was 6%, the IC50 ([5]; ATP at Km, value (SEM), read-out: IC50 (nmol/L) CDK3/cyclin E1) was 15.1 nmol/L and the IC50 ([5]; Supp Fig S1D, representative dose response curve, read-out: IC50 CDK3 - Cyclin E) was 15.1 nmol/L. It also gave an IC50 [6] of over 10000 nM, an IC50 [7] of 21.4 nmol/L and an IC50 ([8]; Supp Fig S1C, value (SEM), read-out: IC50 (nM) CDK2/cyclin E1) of 0.6 nM. For the same compound, the IC50 ([8]; Supp Fig S1D, representative dose response curve, read-out: IC50 CDK2 - Cyclin E) was 0.644 nM, the “increase in potency on CDK2 relative to compound C” value ([8]; biochemical IC50s) was about 10 fold and the “selectivity for CDK2 compared with CDK1” value ([8]; biochemical IC50s) was 50 fold. For the same compound, the IC50 [9] was 291 nM, the IC50 ([10]; ATP at Km, value (SEM), read-out: IC50 (nmol/L) CDK5) was 23.1 nmol/L and the IC50 ([10]; Supp Fig S1C, value (SEM), read-out: IC50 (nM) CDK5) was 23.1 nmol/L. It also gave an IC50 ([10]; Supp Fig S1D, representative dose response curve, read-out: IC50 CDK5 - p35) of 23.1 nmol/L, an IC50 ([11]; Supp Fig S1C, value (SEM), read-out: IC50 (nM) CDK1/B1) of 30 nM and an IC50 ([11]; Supp Fig S1D, representative dose response curve, read-out: IC50 CDK1 - Cyclin B) of 29.1 nM. The IC50 [12] was 38.6 nM, the IC50 ([13]; Supp Fig S1C, value (SEM), read-out: IC50 (nM) CDK4/cyclin D1) was 126 nM and the IC50 ([13]; Supp Fig S1D, representative dose response curve, read-out: IC50 CDK4 - Cyclin D) was 127 nM. The IC50 [14] was 2.96 nM, the “Fold vs. CDK2/E1, CDK2/cyclin E1” value [15, 20] was 1 and the “increase of intracellular IC50 over the biochemical IC50, CDK2/cyclin E1” value ([15]; NanoBRET vs biochemical) was 4 fold. The IC50 ([15]; NanoBRET, HEK293 cells, value (SD), read-out: intracellular IC50 (nmol/L) CDK2/cyclin E1) was 2.3 nmol/L, the “Fold vs. CDK2/E1, CDK1/cyclin B1” value [16, 20] was 163 and the IC50 ([16]; NanoBRET, HEK293 cells, value (SD), read-out: intracellular IC50 (nmol/L) CDK1/cyclin B1) was 374 nmol/L. The “Fold vs. CDK2/E1, CDK2/cyclin A1” value [17, 20] was 31, the IC50 ([17]; NanoBRET, HEK293 cells, value (SD), read-out: intracellular IC50 (nmol/L) CDK2/cyclin A1) was 71 nmol/L and the “Fold vs. CDK2/E1, CDK9/cyclin T1” value [18, 20] was 1283. The IC50 ([18]; NanoBRET, HEK293 cells, value (SD), read-out: intracellular IC50 (nmol/L) CDK9/cyclin T1) was 2950 nmol/L and the cell cycle effect [19] was “strong G1 arrest”.
